Three compounds from patent US20100160386A1, “4-PHENOXY-NICOTINE ACID DERIVATIVES AND USE THEREOF AS PPAR-MODULATORS” (BAYER SCHERING PHARMA AKTIENGESELLSCHAFT, priority 2006, published 2010) can be followed below.

One may read the EC50 as the concentration giving half of the maximal effect. A low value points to a more potent agent.

The target in the experiment is T1, human PPARα-receptor (Homo sapiens, UniProt Q07869).
T1 construct: expressed in transfected cells
T1 sequence (Q07869 167-468): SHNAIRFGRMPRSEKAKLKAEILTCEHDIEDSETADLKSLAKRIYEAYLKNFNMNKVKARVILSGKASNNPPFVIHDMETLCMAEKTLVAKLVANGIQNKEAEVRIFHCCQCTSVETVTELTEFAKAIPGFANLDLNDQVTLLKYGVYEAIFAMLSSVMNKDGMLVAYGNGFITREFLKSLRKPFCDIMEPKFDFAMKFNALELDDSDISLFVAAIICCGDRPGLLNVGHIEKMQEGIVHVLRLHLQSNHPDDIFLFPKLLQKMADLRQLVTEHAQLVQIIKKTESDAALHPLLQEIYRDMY
The experiment is described as follows: Cellular transactivation assay (GAL4-PPARα chimera, luciferase reporter in CHO cells). It counts as cell-based. As to conditions: CHO cells stably expressing GAL4-PPARα chimera and luciferase reporter; stimulation time 6 h. An excerpt: A cellular assay is used to identify activators of the peroxisome proliferator-activated receptor alpha (PPAR-alpha).
Since mammalian cells contain different endogenous nuclear receptors which can complicate unambiguous interpretation of the results, an established chimera system is used, in which the ligand binding domain of the human PPARα-receptor is fused to the DNA binding domain of the yeast transcription factors GAL4. The GAL4-PPARα chimera thus formed is co-transfected and expressed stably in CHO cells with a reporter construct.
The GAL4-PPARα expression construct contains the ligand binding domain of PPARα (amino acids 167-468), which is PCR-amplified and cloned into the vector pcDNA3.1. This vector already contains the GAL4 DNA binding domain (amino acids 1-147) of the vector pFC2-dbd (Stratagene). The reporter construct, which contains five copies of the GAL4 binding site upstream of a thymidine kinase promoter, leads to the expression of firefly luciferase (Photinus pyralis) after activation and binding of GAL4-PPARα.
The day before the test, CHO (Chinese hamster ovary) cells which stably express the above-described GAL4-PPARα chimera and luciferase reporter gene construct are plated out in 96-hole microtiter plates with 1×10^3 cells in medium (Optimem, GIBCO), 2% activated carbon-purified fetal calf serum (Hyclone), 1.35 mM sodium pyruvate (GIBCO), 0.2% sodium bicarbonate (GIBCO), and kept in a cell incubator (air humidity 96%, 5% v/v CO2, 37° C.). On the day of the test, the substances to be tested are taken up in abovementioned medium, but without addition of calf serum, and added to the cells. After a stimulation time of 6 h, the luciferase activity is measured with the aid of a video camera. The relative light units measured give a sigmoid stimulation curve as a function of the substance concentration. The EC50 values are calculated with the aid of the computer program GraphPad PRISM (Version 3.02).
Turning to `Cc1ccc(-c2cc(Oc3ccccc3Cl)c(C(=O)O)cn2)cc1F` [Example 1, 4-(2-Chlorophenoxy)-6-(3-fluoro-4-methylphenyl)nicotinic acid], the EC50 is 59 nM. Then `COc1ccc(Cl)c(Oc2cc(-c3cc(F)cc(F)c3)ncc2C(=O)O)c1` [Example 7, 4-(2-Chloro-5-methoxyphenoxy)-6-(3,5-difluorophenyl)nicotinic acid], with 200 nM; and `COc1ccc(Oc2cc(-c3ccc(C)c(F)c3)ncc2C(=O)O)c(Cl)c1` [Example 9, 4-(2-Chloro-4-methoxyphenoxy)-6-(3-fluoro-4-methylphenyl)nicotinic acid], with 235 nM.
